Data: the supplement of paper PMC10307832

Assays:
Experiment in all cases: relative viability (nuclei count vs DMSO), 5 days (fraction); higher = more cells survive
[1] = compound: CC[C@H](Nc1ncnc2[nH]cnc12)c1nc2cccc(F)c2c(=O)n1-c1ccccc1 [Idelalisib] + C[C@]1(O)C[C@@H](c2nc(-c3ccc4ccc(-c5ccccc5)nc4c3)c3c(N)nccn32)C1 [Linsitinib] (partner 1 µM)
Outline: (§1)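 Medians of duplicate plates are given as relative viability. That measure is the nuclei count in treated wells divided by the count in vehicle wells. Counts were taken on 4× images of lung cancer cell lines in 1536-well plates, 5 days after pin-tool dosing the day after seeding with one drug alone or a fixed anchor-drug dose plus five library-drug doses (not always all listed) in √10 steps.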

[2] = compound: Nc1nc2[nH]cc(CCc3ccc(C(=O)N[C@@H](CCC(=O)O)C(=O)O)cc3)c2c(=O)[nH]1 [Pemetrexed] + CCNC(=O)c1noc(-c2cc(C(C)C)c(O)cc2O)c1-c1ccc(CN2CCOCC2)cc1 [Luminespib] (partner 0.01 µM)
Outline: as §1

[3] = compound: Nc1nc2[nH]cc(CCc3ccc(C(=O)N[C@@H](CCC(=O)O)C(=O)O)cc3)c2c(=O)[nH]1 [Pemetrexed] + COc1cc2c(Oc3ccc(NC(=O)C4(C(=O)Nc5ccc(F)cc5)CC4)cc3F)ccnc2cc1OCCCN1CCOCC1 [Foretinib] (partner 0.25 µM)
Outline: as §1

[4] = compound: Nc1nc2[nH]cc(CCc3ccc(C(=O)N[C@@H](CCC(=O)O)C(=O)O)cc3)c2c(=O)[nH]1 [Pemetrexed] + N=C(N)NC(=N)NCCc1ccccc1 [Phenformin] (partner 250 µM)
Outline: as §1

Cell Line | relative viability ([1]; first compound 0.04 µM) | relative viability ([1]; first compound 0.1265 µM) | relative viability ([1]; first compound 0.4 µM) | relative viability ([1]; first compound 1.265 µM) | relative viability ([1]; first compound 4 µM) | relative viability ([2]; first compound 0.002 µM) | relative viability ([2]; first compound 0.006325 µM) | relative viability ([2]; first compound 0.02 µM) | relative viability ([2]; first compound 0.06325 µM) | relative viability ([2]; first compound 0.2 µM) | relative viability ([3]; first compound 0.002 µM) | relative viability ([3]; first compound 0.006325 µM) | relative viability ([3]; first compound 0.02 µM) | relative viability ([3]; first compound 0.06325 µM) | relative viability ([3]; first compound 0.2 µM) | relative viability ([4]; first compound 0.002 µM) | relative viability ([4]; first compound 0.006325 µM) | relative viability ([4]; first compound 0.02 µM) | relative viability ([4]; first compound 0.06325 µM) | relative viability ([4]; first compound 0.2 µM)
201T | 1.09 | 1.02 | 0.937 | 0.933 | 0.926 | 1.03 | 1.04 | 1.05 | 1.1 | 1.09 | 1.1 | 1.11 | 1.19 | 0.69 | 0.316 | 0.428 | 0.494 | 0.479 | 0.426 | 0.403
NCI-H3122 | 0.953 | 0.952 | 1.03 | 0.935 | 0.894 | 0.106 | 0.106 | 0.106 | 0.0892 | 0.0783 | 0.931 | 0.972 | 0.973 | 0.973 | 0.72 | 0.419 | 0.37 | 0.374 | 0.336 | 0.205
NCI-H838 | 0.926 | 1.01 | 0.891 | 1.01 | 0.8 | 0.234 | 0.246 | 0.309 | 0.197 | 0.156 | 1.01 | 0.912 | 1.16 | 0.91 | 0.267 | 0.616 | 0.546 | 0.792 | 0.379 | 0.155
NCI-H1755 | 1.01 | 0.959 | 0.947 | 0.907 | 0.786 | 0.421 | 0.594 | 0.631 | 0.415 | 0.437 | 0.871 | 0.925 | 0.94 | 0.923 | 0.849 | 0.594 | 0.409 | 0.647 | 0.627 | 0.507
HCC-15 | 0.909 | 0.866 | 0.857 | 0.89 | 0.873 | 0.454 | 0.391 | 0.475 | 0.406 | 0.23 | 0.987 | 0.987 | 1.06 | 0.645 | 0.219 | 0.439 | 0.455 | 0.531 | 0.372 | 0.21
NCI-H2087 | 0.937 | 1.04 | 1.09 | 1.06 | 0.728 | 0.206 | 0.204 | 0.243 | 0.152 | 0.136 | 1.09 | 1.01 | 1.17 | 0.986 | 0.783 | 0.397 | 0.446 | 0.475 | 0.473 | 0.47
LCLC-103H | 1.11 | 0.948 | 0.886 | 1.05 | 0.704 | 0.963 | 0.942 | 1.02 | 0.796 | 0.94 | 0.719 | 0.666 | 0.833 | 0.725 | 0.802 | 0.316 | 0.333 | 0.364 | 0.351 | 0.3
LK-2 | 0.531 | 0.418 | 0.5 | 0.518 | 0.419 | 0.179 | 0.181 | 0.187 | 0.165 | 0.208 | 1.09 | 0.984 | 1.25 | 1.2 | 1.11 | 0.51 | 0.475 | 0.883 | 0.376 | 0.267
NCI-H1666 | 0.881 | 0.873 | 0.73 | 0.629 | 0.552 | 1 | 0.942 | 1.01 | 1.01 | 0.839 | 0.942 | 0.996 | 0.929 | 0.953 | 0.832 | 0.577 | 0.55 | 0.625 | 0.551 | 0.537
EKVX | 0.832 | 0.97 | 0.849 | 0.724 | 0.758 | 0.968 | 0.876 | 0.977 | 0.816 | 0.784 | 0.733 | 0.795 | 1.05 | 0.908 | 0.491 | 0.246 | 0.284 | 0.26 | 0.254 | 0.206
COR-L 105 | 1.05 | 0.83 | 0.793 | 0.806 | 0.595 | 0.77 | 0.834 | 0.673 | 0.862 | 0.729 | 0.97 | 1.16 | 1.17 | 1.15 | 1.24 | 0.405 | 0.45 | 0.49 | 0.524 | 0.449
NCI-H322M | 0.971 | 0.924 | 0.801 | 0.642 | 0.692 | 0.987 | 0.767 | 0.853 | 0.84 | 0.752 | 0.961 | 0.864 | 0.973 | 0.917 | 0.834 | 0.861 | 0.747 | 0.799 | 0.741 | 0.613
HARA | 1.21 | 0.911 | 0.869 | 0.887 | 0.936 | 0.554 | 0.751 | 1.19 | 0.855 | 0.165 | 0.856 | 0.87 | 1 | 0.846 | 0.393 | 0.402 | 0.447 | 0.508 | 0.297 | 0.137
NCI-H2023 | 0.662 | 0.556 | 0.515 | 0.547 | 0.273 | 0.717 | 0.656 | 0.932 | 0.483 | 0.227 |  | 0.739 | 0.885 | 0.888 | 0.319 | 0.343 | 0.397 | 0.473 | 0.354 | 0.203
NCI-H1437 | 1.05 | 1.09 | 0.974 | 1.02 | 1.05 |  | 1.06 | 0.997 | 0.856 | 0.487 |  | 1.2 | 1.07 | 0.796 | 0.413 |  | 0.348 | 0.281 | 0.196 | 0.163
BEN | 0.908 | 0.935 | 0.706 | 0.931 | 0.696 | 0.491 | 0.435 | 0.374 | 0.484 | 0.559 | 0.739 | 0.739 | 0.83 | 0.615 | 0.726 | 0.288 | 0.283 | 0.255 | 0.272 | 0.275
